Measured values reported in US20050049242A1 (priority 2000, published 2005).
Where two headings read alike, the source gives them in different places.

Assays:
HIVLAI = test: Anti-HIV assay, protection from HIV-induced cell death; assay type: cell-based; conditions: read-out: ED50 (concentration that inhibits HIV-induced cell death by 50%); HIVLAI, MT-2 cells, 72 hr
Description: Anti-HIV assays were performed as described above. […] The compounds were then two-fold serially diluted in triplicate. To each 50 μl of diluted compound, 50 μl of HIVLAI was added and the virus-drug mixture was incubated for 1 hr at 37° C. […] Final multiplicity of infection (MOI) was 1-5. Cells were harvested to quantitate cytopathic effect using a neutral red dye assay as described.

HIV-1 IN = HIV-1 IN (Human immunodeficiency virus type 1 group M subtype B, UniProt P12497); conditions: read-out: IC50 (IN dependent disintegration); purified HIV IN, MnCl2
HIV-1NL4-3 = test: Anti-HIV cytopathicity assay against parental molecular clone; assay type: cell-based
Description: (§1) Cloning and sequencing of virus from the HIVNL4-3 passaged in the presence of 8 μM L-chicoric acid was undertaken to determine the molecular basis for resistance to L-chicoric acid and to isolate a resistant HIV clone.
Assays, as described above, to determine the ED50 for a given compound against the molecular clone HIVNL4-3clone1-D4 and the parental clone HIVNL4-3 give an indication of the selectivity of the compound for inhibition of HIV replication through IN. Resistance to a compound, as measured by an increased ED50, by clone HIVNL4-3clone1-D4, implies selectivity of the compound for IN. Thus clone HIVNL4-3clone1-D4 can be used to screen candidate IN inhibitors for selectivity.

HIV-1NL4-3clone1-D4 = assay type: cell-based; conditions: for efficacy against the L-chicoric acid resistant clone: compared with parental HIVNL4-3
Description: as §1
This cloning was accomplished through site-directed mutagenesis introducing several silent mutations immediately upstream and downstream of the integrase gene. These mutations generated two unique restriction sites: an upstream SacII and a downstream XbaI (FIG. 15). Introduction of these mutations allowed the entire integrase gene with only minimal upstream and downstream nucleotides to be digested and “swapped” between drug-resistant and drug-sensitive clones.

[1] = system: HIVNL4-3 passaged in the presence of 8 μM L-chicoric acid; test: Cytopathicity assay against virus passaged in 8 μM L-chicoric acid; assay type: cell-based, HIV; conditions: FIG. 14
Description: HIVNL4-3 plasmid (a gift from Dr. P. Krogstad, UCLA, Los Angeles, Calif.), was transfected in HeLa cells using Lipofectin® (Gibco/BRL). Excess DNA was removed by washing and cells were co-cultured with H9 cells for 18 hours. The H9 cells were removed and re-cultured in growth medium. When the culture was 100% positive for HIV antigens by indirect immunofluorescence, the virus was inoculated onto H9 cells and incubated at 37° C. for several weeks in the presence of 2 μM L-chicoric acid. When this culture was 100% positive the virus was isolated and one aliquot was passaged in a similar manner in 4 μM L-chicoric acid. Finally, virus was cultured in the presence of 8 μM L-chicoric acid and the resultant virus filter-clarified, aliquoted, and stored at −70° C.
as §1

In the case of “Di-3,4-dihydrodihydroxybenzylidine succinic acid [Compound 38]”, the EC50 (HIVLAI) is reported as 4400 nM and the IC50 (HIV-1 IN) is reported as 858 nM.

With Dicaffeoyl-L-tartaric acid [Compound 1] the EC50 (HIV-1NL4-3; control virus passaged without inhibitor, FIG. 14, read-out: ED50 against HIVNL4-3 control virus) was 400 nM, the EC50 (HIV-1NL4-3; mean of triplicate infections, read-out: ED50 HIVNL4-3) was 780 nM and the “efficacy against the L-chicoric acid resistant clone” value (HIV-1NL4-3clone1-D4) was “reduced efficacy”. The “efficacy against the L-chicoric acid resistant clone” value (HIV-1NL4-3clone1-D4; listed as L-chicoric acid) was “resistant”, the EC50 (HIV-1NL4-3clone1-D4; mean of triplicate infections, read-out: ED50 HIVNL4-3clone1-D4) was 61200 nM and the “resistance of passaged virus to the compound” value [1] was “completely resistant”.
